Assay results as given in paper PMC11087509, “Multimodal binding and inhibition of bacterial ribosomes by the antimicrobial peptides Api137 and Api88” (Nature Communications, 2024).
Where a SMILES comes first, the peptide text is derived from it. The star is where a group is joined. Orn(α-tetramethylguanidino) = CN(C)C(=N[C@@H](CCCN)C(=O)*)N(C)C

Tests used:
[1] = tested on: murine infection models; conditions: various models, different routes of administration; cited from earlier work
Description: Here we have focused on two structurally modified versions of apidaecin 1b ([…]), which was originally isolated from the western honeybee (Apis mellifera). […] Api137 and Api88 differ only in their C-termini, i.e., a free acid versus an amide, which are negatively charged or neutral, respectively, ...

[2] = biological target: T1, 50S subunit (Escherichia coli, UniProt P0A7M6+P0ADZ0+P60723+P61175); experiment: Cryo-EM of 50S•Api137 and 50S•Api88 complexes; type: binding, E. coli; conditions: 50S 0.3 µM, peptide 30 µM, Tico buffer pH 7.6, room temperature, 20 min
T1 construct: Ribosomes were isolated from the E. coli strain MRE600; made in house; native subunits isolated in house
Experimental: Several hundred grams of log-phase cells were commercially produced and purchased. Cells were washed in buffer A (20 mmol/L HEPES (pH 7.6), 6 mmol/L MgAc2, 30 mmol/L AcOK, 4 mmol/L ß-mercaptoethanol) and lysed in an M-110L microfluidizer (Microfluidics) at 17,000 psi and 4 °C. Cell debris was removed by low-speed centrifugation (15,000× g, 10 min, 4 °C) to obtain S30 lysate. Crude ribosomes, mostly containing 70S ribosomes, were pelleted by ultracentrifugation (40,000× g, 17 h, 4 °C) and resuspended in buffer A. The 70S ribosomes were separated from 30S and 50S subunits by zonal ultracentrifugation (Beckman Ti-15; 6–40% sucrose gradient in buffer A, 44,000× g, 16 h, 4 °C). The 70S-containing fractions were collected, and the ribosomes were sedimented by ultracentrifugation (40,000× g, 17 h, 4 °C). […]
Purified 50S subunits (0.3 µM) were incubated with Api137 or Api88 (30 µM) in Tico buffer (20 mM HEPES/KOH, pH 7.6, 30 mM AcOK, 6 mM Mg(AcO)2, 4 mM 2-mercaptoethanol) at room temperature for 20 min. The complexes were applied to glow-discharged (Pelco Easy Glow) holey carbon grids (400 Mesh Cu R2/2, Quantifoil MicroTools GmbH) and plunge-frozen in liquid ethane using a Vitrobot Mark IV (Thermo Fisher Scientific) device. […]

Q: For CC[C@H](C)[C@H](NC(=O)[C@H](Cc1ccc(O)cc1)NC(=O)[C@@H](NC(=O)[C@@H]1CCCN1C(=O)[C@H](CCCNC(=N)N)NC(=O)[C@H](CC(N)=O)NC(=O)[C@H](CC(N)=O)NC(=O)[C@H](CCCN)N=C(N(C)C)N(C)C)C(C)C)C(=O)N1CCC[C@H]1C(=O)N[C@@H](CCCNC(=N)N)C(=O)N1CCC[C@H]1C(=O)N[C@@H](CCCNC(=N)N)C(=O)N1CCC[C@H]1C(=O)N1CCC[C@H]1C(=O)N[C@@H](Cc1c[nH]cn1)C(=O)N1CCC[C@H]1C(=O)N[C@@H](CCCNC(=N)N)C(=O)N[C@@H](CC(C)C)C(=O)O [Api137] ({Orn(α-tetramethylguanidino)}-NNRPVYIPRPRPPHPRL-OH), which “efficacy in murine infection models” value [1] is on record?
A: demonstrated efficacy in various murine infection models

Q: And the “binding sites identified on 50S” value [2]?
A: another apidaecin molecule in an unexpected location near the exit of the PET
